Source: ChEMBL document CHEMBL1147342, “Isolation and structure of the marine sponge cell growth inhibitory cyclic peptide phakellistatin 1” (1993)
In brackets after ≈: the same amount, converted by molar mass. Peptide text beside a SMILES is read from it.

System: P388
Experiment: Cytotoxicity against mouse P388 cells
Assay type: functional
Settings: read-out: ED50 (the source's name)

CC[C@H](C)[C@@H]1NC(=O)[C@@H]2CCCN2C(=O)[C@H]([C@@H](C)CC)NC(=O)[C@@H]2CCCN2C(=O)[C@H](Cc2ccc(O)cc2)NC(=O)[C@@H]2CCCN2C(=O)[C@H](Cc2ccccc2)NC1=O [PHAKELLISTATIN 1] (cyclo(FPYPIPI))
EC50: 7.5 µg/mL (≈ 9.06 µM)
